# Literature values as cited in patent publication US20250303004A1, “RADIOPHARMACEUTICAL COMPOSITIONS FOR LOW TOXICITY ACTINIUM IN TARGETED RADIONUCLIDE THERAPY” (Curium US LLC, priority 2021, published 2025).
# Entries after “also recorded” stand apart in the source; their conditions may differ. Read-outs that look alike come from different tables or passages of the source.
# What was measured:
# patients with mCRPC [1] = conditions: cited from earlier work
# mCRPC patients = conditions: cited from earlier work
# patients with mCRPC [2] = conditions: cited from earlier work; for Biochemical response PSA50 (PSA decline of more than 50%): 40 patients (38 evaluated)
# patient [3] = conditions: Sathekge 2019a; 1 patient; 8 MBq per cycle; cited from earlier work
# [4] = test system: chemotherapy naive patients; conditions: cited from earlier work
# patient [5] = conditions: De Medeiros 2019; 1 patient; 6-8 MBq per cycle; cited from earlier work
# men with mCRPC = conditions: cited from earlier work
# patients with mCRPC [6] = conditions: 26 patients, cited from earlier work; for Biochemical response PSA50 (PSA decline of >50%): all progressed after ^177Lu-PSMA
# patients [7] = conditions: van der Doelen 2020; 13 patients; 6-8 MBq per cycle; cited from earlier work
# patient [8] = conditions: cited from earlier work
# patients [9] = conditions: out of 60; cited from earlier work
# cerebral metastases = conditions: in vivo; cited from earlier work
# kidneys = conditions: in vivo; cited from earlier work
# [10] = Kratochwil 2016, 2 patients, 100 kBq/kg per cycle
# [11] = both patients, 100 kBq/kg every 8 weeks
# [12] = Kratochwil 2017, 14 patients, 50-200 kBq/kg per cycle
# [13] = Kratochwil 2018, 40 patients, 100 kBq/kg per cycle
# [14] = Sathekge 2019b, 17 patients, 4-8 MBq per cycle
# [15] = 73 patients, percentage in parentheses
# [16] = Sathekge 2020, 73 patients, 4-8 MBq per cycle
# [17] = Feuerecker 2020, 4-8 MBq per cycle
# [18] = 3 cycles of mean 8.4 MBq, PSA 39.7 ng/ml at first cycle
structure (smiles),measurement,setting,value
"O=C(O)CC[C@H](NC(=O)N[C@@H](CCCCNC(=O)[C@H](Cc1ccc2ccccc2c1)NC(=O)[C@H]1CC[C@H](CNC(=O)CN2CCN(CC(=O)O)CCN(CC(=O)O)CCN(CC(=O)O)CC2)CC1)C(=O)O)C(=O)O [^225Ac-PSMA-617, metal not drawn]",Salivary gland toxicity (xerostomia),patients with mCRPC [1]; 2 patients,reported in both patients
same,Biochemical response PSA50,patients with mCRPC [1]; [10],100%
same,Major toxicity,patients with mCRPC [1]; [10],xerostomia
same,PSA,patients with mCRPC [1]; [11],declined below the measurable level
same,response on ^68Ga-PSMA-11 PET/CT scan,patients with mCRPC [1]; [11],complete response
same,Biochemical response PSA50,mCRPC patients; [12],44%
same,Major toxicity,mCRPC patients; [12],xerostomia
same,OS,mCRPC patients; [12],na/8.5 mo
same,duration of prostate-specific antigen decline,mCRPC patients; at 100 kBq/kg,less than 4 months
same,dose-limiting toxicity,mCRPC patients; if treatment activity exceeded 100 kBq/kg per cycle,severe xerostomia
same,patients with remarkable antitumor activity (objective radiologic response or tumor marker decline),mCRPC patients; of 11 evaluable patients,9 patients
same,toxicity,mCRPC patients; treatment activities of 50 kBq/kg,without toxicity
same,antitumor response,"mCRPC patients; treatment activities of 50 kBq/kg, high-tumor-burden patients",insufficient antitumor response
same,median duration of tumor control,"patients with mCRPC [2]; 40 patients, 100 kBq/kg",9 months
same,median overall survival,"patients with mCRPC [2]; 40 patients, 100 kBq/kg",more than 12 months
same,progression free survival (median),"patients with mCRPC [2]; 40 patients, 100 kBq/kg",7.0 months
same,Biochemical response PSA50 (PSA decline of more than 50%),"patients with mCRPC [2]; Kratochwil 2018, 100 kBq/kg per cycle",63%
same,Biochemical response PSA50 (PSA decline of more than 50%),"patients with mCRPC [2]; Kratochwil 2018, 100 kBq/kg per cycle, listed as PSMA-617",63%
same,Major toxicity,patients with mCRPC [2]; [13],xerostomia
same,OS,patients with mCRPC [2]; [13],na/>12 mo
same,patients demonstrating any PSA response,patients with mCRPC [2]; of 38 patients surviving at least 8 weeks,87%
same,Biochemical response PSA50,patient [3],100%
same,most frequently noted side-effect,"[4]; 17 patients, no discontinuation due to severe symptoms",Grade 1-2 xerostomia
same,Biochemical response PSA50,[4]; [14],88%
same,Major toxicity,[4]; [14],xerostomia
same,nephrotoxicity,"[4]; a patient with only a single functional kidney, poor renal functioning from baseline",Grade 4 nephrotoxicity
same,patients with PSA decline >90%,"[4]; at end of therapy, 17 patients",82%
same,patients still alive,[4]; median follow up of 13 months post initiation of treatment,82%
same,surviving patients in remission with undetectable serum PSA levels,[4]; median follow up of 13 months,50%
same,surviving patients with stable disease,[4]; median follow up of 13 months,50%
same,Biochemical response PSA50,patient [5],100%
same,Major toxicity,patient [5],xerostomia; also recorded: xerophtalmia
same,Median PFS,"men with mCRPC; 73 patients, 95% CI, 13.1-17.4 months",15.2 months
same,Median OS,"men with mCRPC; 73 patients, 95% CI, 16.2-19.9 months",18 months
same,"Anemia, Grade I or II",men with mCRPC; 73 patients,22 patients
same,"Anemia, Grade IV",men with mCRPC; 73 patients,0 patients
same,"Anorexia, Grade I or II",men with mCRPC; 73 patients,23 patients
same,"Anorexia, Grade III",men with mCRPC; 73 patients,0 patients
same,"Anorexia, Grade IV",men with mCRPC; 73 patients,0 patients
same,"Constipation, Grade I or II",men with mCRPC; 73 patients,19 patients
same,"Constipation, Grade III",men with mCRPC; 73 patients,0 patients
same,"Constipation, Grade IV",men with mCRPC; 73 patients,0 patients
same,"Dry eyes, Grade I or II",men with mCRPC; 73 patients,4 patients
same,"Dry eyes, Grade III",men with mCRPC; 73 patients,0 patients
same,"Dry eyes, Grade IV",men with mCRPC; 73 patients,0 patients
same,"Dry mouth, Grade I or II",men with mCRPC; 73 patients,62 patients
same,"Dry mouth, Grade III",men with mCRPC; 73 patients,0 patients
same,"Dry mouth, Grade IV",men with mCRPC; 73 patients,0 patients
same,"Dysgeusia, Grade I or II",men with mCRPC; 73 patients,4 patients
same,"Dysgeusia, Grade III",men with mCRPC; 73 patients,0 patients
same,"Dysgeusia, Grade IV",men with mCRPC; 73 patients,0 patients
same,"Dyspepsia, Grade I or II",men with mCRPC; 73 patients,3 patients
same,"Dyspepsia, Grade III",men with mCRPC; 73 patients,0 patients
same,"Dyspepsia, Grade IV",men with mCRPC; 73 patients,0 patients
same,"Dysuria, Grade I or II",men with mCRPC; 73 patients,13 patients
same,"Dysuria, Grade III",men with mCRPC; 73 patients,0 patients
same,"Dysuria, Grade IV",men with mCRPC; 73 patients,0 patients
same,"Fatigue, Grade I or II",men with mCRPC; 73 patients,37 patients
same,"Fatigue, Grade III",men with mCRPC; 73 patients,0 patients
same,"Fatigue, Grade IV",men with mCRPC; 73 patients,0 patients
same,"Hypoalbuminemia, Grade I or II",men with mCRPC; 73 patients,14 patients
same,"Hypoalbuminemia, Grade III",men with mCRPC; 73 patients,0 patients
same,"Hypoalbuminemia, Grade IV",men with mCRPC; 73 patients,0 patients
same,"Leukopenia, Grade I or II",men with mCRPC; 73 patients,7 patients
same,"Leukopenia, Grade IV",men with mCRPC; 73 patients,0 patients
same,"Nausea, Grade I or II",men with mCRPC; 73 patients,15 patients
same,"Nausea, Grade III",men with mCRPC; 73 patients,0 patients
same,"Nausea, Grade IV",men with mCRPC; 73 patients,0 patients
same,"Renal Failure, Grade I or II",men with mCRPC; 73 patients,18 patients
same,"Thrombocytopenia, Grade I or II",men with mCRPC; 73 patients,6 patients
same,"Thrombocytopenia, Grade IV",men with mCRPC; 73 patients,0 patients
same,"Vomiting, Grade I or II",men with mCRPC; 73 patients,4 patients
same,"Vomiting, Grade III",men with mCRPC; 73 patients,0 patients
same,"Vomiting, Grade IV",men with mCRPC; 73 patients,0 patients
same,"Weight loss, Grade I or II",men with mCRPC; 73 patients,28 patients
same,"Weight loss, Grade III",men with mCRPC; 73 patients,0 patients
same,"Weight loss, Grade IV",men with mCRPC; 73 patients,0 patients
same,patients with negative ^68Ga-PSMA PET/CT images post therapy,men with mCRPC; 73 patients,29%
same,"Anemia, Grade III",men with mCRPC; [15],5 (7) patients
same,"Leukopenia, Grade III",men with mCRPC; [15],2 (3) patients
same,"Renal Failure, Grade III",men with mCRPC; [15],3 (4) patients
same,"Renal Failure, Grade IV",men with mCRPC; [15],2 (3) patients
same,"Thrombocytopenia, Grade III",men with mCRPC; [15],1 (1) patients
same,Biochemical response PSA50 (≥50% PSA decline),men with mCRPC; [16],70%
same,OS,men with mCRPC; [16],18.0 mo
same,PFS,men with mCRPC; [16],15.2 mo
same,Biochemical response PSA50 (≥50% PSA decline),"men with mCRPC; Sathekge 2020, 73 patients, 4-8 MBq per cycle, listed as PSMA-617",70%
same,patients with any decline in PSA,"men with mCRPC; at the end of therapy, 73 patients",82%
same,patients who had passed away,men with mCRPC; of 73,13 patients
same,patients with disease progression,men with mCRPC; of 73,23 patients
same,median overall survival,patients with mCRPC [6]; 95% CI 4.5-12.1 months,7.7 months
same,complete response,patients with mCRPC [6],no complete response was seen
same,patients refusing any further treatment due to severe xerostomia,patients with mCRPC [6],23%
same,patients with any PSA reduction,patients with mCRPC [6],88%
same,xerostomia,patients with mCRPC [6],Mild irreversible xerostomia was seen in all patients
same,patients with treatment discontinued to prevent further deterioration of marrow toxicity,patients with mCRPC [6]; pre-existing marrow toxicity,8%
same,Biochemical response PSA50 (PSA decline of >50%),patients with mCRPC [6]; [17],65%
same,Biochemical response PSA50 (PSA decline of >50%),"patients with mCRPC [6]; Feuerecker 2020, 4-8 MBq per cycle, listed as PSMA-617",65%
same,Major toxicity,patients with mCRPC [6]; [17],"xerostomia; also recorded: Hb↓, WBC↓, plt↓"
same,OS,patients with mCRPC [6]; [17],7.7 mo
same,PFS,patients with mCRPC [6]; [17],3.5 mo
same,Biochemical response PSA50,patients [7],69%
same,Major toxicity,patients [7],xerostomia
same,OS,patients [7],na/8.5 mo
same,PSA level at second cycle,patient [8]; [18],7.7 ng/mL
same,PSA level at third cycle,patient [8]; [18],0.32 ng/mL
same,xerostomia,patient [8]; 3 cycles of mean 8.4 MBq,chronic xerostomia
same,creatinine,"patient [8]; January 2019, increased from 1.3 in October 2015",3.3 mg/dL
same,patients with poor response despite sufficient tumor uptake in PSMA PET/CT,patients [9],10 patients
same,blood-brain barrier crossing,cerebral metastases,crosses the blood-brain barrier
same,effect on cerebral metastases,cerebral metastases,significant regression of cerebral metastases
same,kidney function,kidneys,deteriorated
same,route of excretion,kidneys,predominantly renal excretion
